Assay [1] addresses T1, Recombinant G2019S-LRRK2 protein (Homo sapiens, UniProt Q5S007, G2019S).
T1 construct: purchased Life Technologies PV4881
Briefly: LanthaScreen Kinase Activity Assay (TR-FRET), G2019S-LRRK2. The following applies: class symbols; 25 μM ATP, 400 nM LRRKtide, 2.9 nM kinase, 60 min at room temperature. The class given is biochemical. How it is done:
(§1) LRRK2 kinase activity was measured using a LanthaScreen™ Kinase Activity Assay from ThermoFisher Scientific. Recombinant wild type or G2019S-LRRK2 protein (Life Technologies, PR8604B or PV4881, respectively), was incubated with a fluorescein-labeled peptide substrate called LRRKtide that is based upon ezrin/radixin/moesin (ERM) (Life Technologies, PV4901) in the presence of ATP and serially diluted compound. After an incubation period of 1 hr, the phosphotransferase activity was stopped and a terbium-labelled anti-pERM antibody (Life Technologies, PV4899) was added to detect the phosphorylation of LRRKtide by measuring the time resolved-Forster resonant energy transfer (TR-FRET) signal from the terbium label on the antibody to the fluorescein tag on LRRKtide, expressed as the 520 nm/495 nm emission ratio. Compound-dependent inhibition of the TR-FRET signal was used to generate a concentration-response curve for IC50 determination.
(§2) The assay was carried out under the following protocol conditions: 1 mM compound in DMSO was serially diluted 1:3, 11 points in DMSO with a Biomek FX and 0.1 μL of the diluted compound was subsequently stamped into the assay plate (384-well format Lumitrac 200, Greiner, 781075) with an Echo Labcyte such that the final compound concentration in the assay was 10 μM to […]. Subsequently, 5 μL of 2× kinase solution (2.9 nM final concentration) was added to the assay plate in assay buffer composed of 50 mM Tris pH 8.5 (Sigma, T6791), 5 mM MgCl2 (Fluka, 63020), 1 mM EGTA (Sigma, E3889), 0.01% BRIJ-35 (Sigma, P1254) and 2 mM DTT. The reaction was started by addition of 2×ATP/LRRKtide solution in assay buffer such that the final concentration was 400 nM LRRKtide and 25 μM ATP. After 60 min incubation at room temperature, the reaction was stopped by addition of […] containing a final concentration of 2 nM anti-pERM antibody and 10 mM EDTA. After a 30 min incubation at RT, the TR-FRET signal was measured on a Wallac 2104 EnVision® multilabel reader at an excitation wavelength of 340 nm and reading emission at 520 nm and 495 nm. The ratio of the 520 nm and 495 nm emission was used to analyze the data.
(In general: Time-resolved FRET reads energy transfer from a long-lived donor to a nearby acceptor.)

Assay [2] deals with T2, Recombinant wild type LRRK2 protein (Homo sapiens, UniProt Q5S007).
T2 construct: purchased Life Technologies PR8604B
T2 sequence (Q5S007 whole entry): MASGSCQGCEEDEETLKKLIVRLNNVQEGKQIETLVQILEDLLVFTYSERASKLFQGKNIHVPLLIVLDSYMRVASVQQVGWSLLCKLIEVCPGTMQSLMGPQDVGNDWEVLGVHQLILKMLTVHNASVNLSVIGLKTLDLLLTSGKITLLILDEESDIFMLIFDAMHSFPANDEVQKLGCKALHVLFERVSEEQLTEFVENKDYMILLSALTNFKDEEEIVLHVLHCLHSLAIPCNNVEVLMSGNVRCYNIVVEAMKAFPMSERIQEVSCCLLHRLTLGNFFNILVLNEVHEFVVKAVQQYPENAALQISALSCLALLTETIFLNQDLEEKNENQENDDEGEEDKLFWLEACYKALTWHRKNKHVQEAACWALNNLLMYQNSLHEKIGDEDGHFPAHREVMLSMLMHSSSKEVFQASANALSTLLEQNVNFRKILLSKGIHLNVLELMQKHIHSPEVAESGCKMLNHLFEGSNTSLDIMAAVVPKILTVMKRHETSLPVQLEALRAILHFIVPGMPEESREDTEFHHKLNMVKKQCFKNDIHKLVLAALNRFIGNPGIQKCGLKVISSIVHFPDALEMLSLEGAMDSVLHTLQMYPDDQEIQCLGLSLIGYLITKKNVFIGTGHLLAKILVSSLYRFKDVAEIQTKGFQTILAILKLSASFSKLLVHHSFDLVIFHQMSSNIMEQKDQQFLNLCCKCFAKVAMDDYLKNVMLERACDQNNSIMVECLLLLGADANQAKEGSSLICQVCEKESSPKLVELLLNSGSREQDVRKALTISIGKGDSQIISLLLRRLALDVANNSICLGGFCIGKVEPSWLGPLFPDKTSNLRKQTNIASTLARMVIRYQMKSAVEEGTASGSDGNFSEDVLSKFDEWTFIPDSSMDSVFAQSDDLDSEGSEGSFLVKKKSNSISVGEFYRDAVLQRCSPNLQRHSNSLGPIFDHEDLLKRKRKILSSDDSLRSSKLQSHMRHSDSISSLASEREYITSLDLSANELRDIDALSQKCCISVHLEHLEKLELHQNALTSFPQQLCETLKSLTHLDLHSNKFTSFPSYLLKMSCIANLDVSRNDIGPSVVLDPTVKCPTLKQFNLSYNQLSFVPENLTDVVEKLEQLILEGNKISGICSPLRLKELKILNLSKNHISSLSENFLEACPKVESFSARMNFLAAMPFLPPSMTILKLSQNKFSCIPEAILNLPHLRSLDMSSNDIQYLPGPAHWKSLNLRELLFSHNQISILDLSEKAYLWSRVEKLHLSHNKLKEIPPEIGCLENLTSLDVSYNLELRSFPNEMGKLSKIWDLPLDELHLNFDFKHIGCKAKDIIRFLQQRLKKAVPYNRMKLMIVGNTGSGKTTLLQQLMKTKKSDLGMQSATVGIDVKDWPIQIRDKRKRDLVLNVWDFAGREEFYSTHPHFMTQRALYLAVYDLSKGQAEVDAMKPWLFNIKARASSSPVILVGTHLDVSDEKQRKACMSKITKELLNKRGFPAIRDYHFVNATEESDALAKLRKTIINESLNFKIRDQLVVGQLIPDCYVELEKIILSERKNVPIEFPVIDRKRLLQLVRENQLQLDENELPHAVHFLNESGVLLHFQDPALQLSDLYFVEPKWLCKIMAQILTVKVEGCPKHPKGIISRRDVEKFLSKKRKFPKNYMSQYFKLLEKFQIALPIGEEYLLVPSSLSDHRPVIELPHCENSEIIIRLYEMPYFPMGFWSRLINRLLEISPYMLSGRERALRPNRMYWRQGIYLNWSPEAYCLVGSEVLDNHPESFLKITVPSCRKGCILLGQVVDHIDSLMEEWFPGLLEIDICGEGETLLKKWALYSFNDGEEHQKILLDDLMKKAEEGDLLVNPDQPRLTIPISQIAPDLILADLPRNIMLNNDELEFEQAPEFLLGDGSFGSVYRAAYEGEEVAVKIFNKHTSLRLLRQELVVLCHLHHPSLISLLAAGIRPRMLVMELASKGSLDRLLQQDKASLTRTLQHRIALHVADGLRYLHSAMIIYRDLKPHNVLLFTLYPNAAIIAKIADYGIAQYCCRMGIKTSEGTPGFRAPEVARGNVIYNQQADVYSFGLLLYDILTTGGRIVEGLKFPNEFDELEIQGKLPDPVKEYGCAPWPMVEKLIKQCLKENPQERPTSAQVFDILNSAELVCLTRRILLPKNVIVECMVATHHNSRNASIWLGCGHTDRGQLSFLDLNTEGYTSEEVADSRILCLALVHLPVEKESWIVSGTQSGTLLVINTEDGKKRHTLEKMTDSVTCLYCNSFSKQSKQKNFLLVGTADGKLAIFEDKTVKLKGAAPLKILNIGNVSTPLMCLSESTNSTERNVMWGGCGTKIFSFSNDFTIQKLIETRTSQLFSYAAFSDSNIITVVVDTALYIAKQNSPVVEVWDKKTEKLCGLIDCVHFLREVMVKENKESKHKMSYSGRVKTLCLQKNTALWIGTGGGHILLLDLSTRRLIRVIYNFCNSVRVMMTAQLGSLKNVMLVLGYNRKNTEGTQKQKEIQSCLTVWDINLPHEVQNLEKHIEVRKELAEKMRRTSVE
Briefly: LanthaScreen Kinase Activity Assay (TR-FRET), wild type LRRK2. The note with it: 25 μM ATP, 400 nM LRRKtide, 2.9 nM kinase, 60 min at room temperature, read-out: LRRK2 WT IC50. The assay is classed as biochemical. How it is done: as §1, §2

Like-named read-outs stand apart in the source and are kept apart here. Some results are limits rather than exact numbers.

The term IC50 denotes the midpoint of a concentration-inhibition curve.

T1 sequence (Q5S007 whole entry G2019S): as the sequence (Q5S007 whole entry) above, with G2019S counted along it

On to `Cn1cc(-c2n[nH]c3ccc(NC(=O)c4c(F)cc5c(cnn5C)c4F)cc23)cn1` [Example 35, 4,6-Difluoro-1-methyl-N-(3-(1-methyl-1H-pyrazol-4-yl)-1H-indazol-5-yl)-1H-indazole-5-carboxamide], for which the IC50 in assay [1] and in assay [2] (class symbols) was at most 100 nM each time.

As to `Cc1noc(C)c1-c1n[nH]c2ccc(NC(=O)c3c(F)cc4c(cnn4C)c3F)cc12` [Example 36, N-(3-(3,5-Dimethylisoxazol-4-yl)-1H-indazol-5-yl)-4,6-difluoro-1-methyl-1H-indazole-5-carboxamide], the IC50 is 1000 to 10000 nM in assay [1] and over 10000 nM in assay [2] (numeric bound instead of class symbol).

Take `Cc1cc(-c2n[nH]c3ccc(NC(=O)c4c(F)cc5c(cnn5C)c4F)cc23)ccn1` [Example 37, 4,6-Difluoro-1-methyl-N-(3-(2-methylpyridin-4-yl)-1H-indazol-5-yl)-1H-indazole-5-carboxamide]: the half-inhibitory concentration (IC50) in assay [1] and in assay [2] (class symbols) was at most 100 nM in each case.

Take `Cc1ccncc1-c1n[nH]c2ccc(NC(=O)c3c(F)cc4c(cnn4C)c3F)cc12` [Example 38, 4,6-Difluoro-1-methyl-N-(3-(4-methylpyridin-3-yl)-1H-indazol-5-yl)-1H-indazole-5-carboxamide]: the half-maximal inhibitory concentration (IC50) in assay [1] and in assay [2] (class symbols) was 1000 to 10000 nM in each case.

In the case of `Cc1cnccc1-c1n[nH]c2ccc(NC(=O)c3c(F)cc4c(cnn4C)c3F)cc12` [Example 40, 4,6-Difluoro-1-methyl-N-(3-(3-methylpyridin-4-yl)-1H-indazol-5-yl)-1H-indazole-5-carboxamide], the IC50 lay in the range of 100 to 1000 nM in assay [1] and 1000 to 10000 nM in assay [2] (class symbols).

On to `Cc1cc2cnnn2cc1C(=O)Nc1ccc2[nH]nc(-c3ccccc3)c2c1` [Example 43, 5-Methyl-N-(3-phenyl-1H-indazol-5-yl)-[1,2,3]triazolo[1,5-a]pyridine-6-carboxamide], for which the IC50 in assay [1] and in assay [2] (class symbols) was at most 100 nM in each case.

As for `Cc1cc2cnnn2c(C)c1C(=O)Nc1ccc2[nH]nc(-c3ccccc3F)c2c1` [Example 44, N-(3-(2-Fluorophenyl)-1H-indazol-5-yl)-5,7-dimethyl-[1,2,3]triazolo[1,5-a]pyridine-6-carboxamide], the IC50 in assay [1] was at most 100 nM; in assay [2] (class symbols) it was 100 to 1000 nM.

Turning to `Cc1cc2cnnn2c(C)c1C(=O)Nc1ccc2[nH]nc(Br)c2c1` [Example 45, N-(3-Bromo-1H-indazol-5-yl)-5,7-dimethyl-[1,2,3]triazolo[1,5-a]pyridine-6-carboxamide], the concentration for half-maximal inhibition (IC50) in assay [1] is at most 100 nM; in assay [2] (class symbols) it was 100 to 1000 nM.

Take `COc1ccccc1-c1n[nH]c2ccc(NC(=O)c3c(C)cc4cnnn4c3C)cc12` [Example 46, N-(3-(2-Methoxyphenyl)-1H-indazol-5-yl)-5,7-dimethyl-[1,2,3]triazolo[1,5-a]pyridine-6-carboxamide]: the 50% inhibitory concentration (IC50) in assay [1] was at most 100 nM; in assay [2] (class symbols) it was 100 to 1000 nM.

Consider `Cc1cccc(-c2n[nH]c3ccc(NC(=O)c4c(C)cc5cnnn5c4C)cc23)c1C` [Example 47, N-(3-(2,3-Dimethylphenyl)-1H-indazol-5-yl)-5,7-dimethyl-[1,2,3]triazolo[1,5-a]pyridine-6-carboxamide], for which the IC50 fell in the range of 100 to 1000 nM in assay [1] and 1000 to 10000 nM in assay [2] (class symbols).

Turning to `Cc1cc2cnnn2c(C)c1C(=O)Nc1ccc2[nH]nc(-c3ccccc3)c2c1` [Example 48, 5,7-Dimethyl-N-(3-phenyl-1H-indazol-5-yl)-[1,2,3]triazolo[1,5-a]pyridine-6-carboxamide], the IC50 in assay [1] and in assay [2] (class symbols) was at most 100 nM throughout.

`Cc1cc2cnnn2c(C)c1C(=O)Nc1ccc2[nH]nc(C)c2c1` [Example 49, 5,7-Dimethyl-N-(3-methyl-1H-indazol-5-yl)-[1,2,3]triazolo[1,5-a]pyridine-6-carboxamide]: the IC50 is at most 100 nM in assay [1] and 1000 to 10000 nM in assay [2] (class symbols).

As for `Cn1ncc2c(F)c(C(=O)Nc3ccc4[nH]nc(-c5ccccc5)c4c3)c(F)cc21` [Example 50, 4,6-Difluoro-1-methyl-N-(3-phenyl-1H-indazol-5-yl)-1H-indazole-5-carboxamide], the IC50 in assay [1] was at most 100 nM; in assay [2] (class symbols), 100 to 1000 nM.

As for `Cc1n[nH]c2ccc(NC(=O)c3c(F)cc4c(cnn4C)c3F)cc12` [Example 51, 4,6-Difluoro-1-methyl-N-(3-methyl-1H-indazol-5-yl)-1H-indazole-5-carboxamide], the IC50 in assay [1] was at most 100 nM; in assay [2] (class symbols), 100 to 1000 nM.

With `Cc1cn2cncc2cc1C(=O)Nc1ccc2[nH]nc(-c3ccccc3)c2c1` [Example 52, 6-Methyl-N-(3-phenyl-1H-indazol-5-yl)imidazo[1,5-a]pyridine-7-carboxamide], the IC50 in assay [1] and in assay [2] (class symbols) was at most 100 nM each time.

For the compound `Cc1cc2cncn2c(C)c1C(=O)Nc1ccc2[nH]nc(C)c2c1` [Example 55, 5,7-Dimethyl-N-(3-methyl-1H-indazol-5-yl)imidazo[1,5-a]pyridine-6-carboxamide], the IC50 in assay [1] is at most 100 nM; in assay [2] (class symbols), 1000 to 10000 nM.

As to `Cc1n[nH]c2ccc(NC(=O)c3c(Cl)cn4cnnc4c3Cl)cc12` [Example 56, 6,8-Dichloro-N-(3-methyl-1H-indazol-5-yl)-[1,2,4]triazolo[4,3-a]pyridine-7-carboxamide], the half-maximal inhibitory concentration (IC50) in assay [1] is at most 100 nM; in assay [2] (class symbols) it was 100 to 1000 nM.

Consider `Cc1cn2cnnc2c(C)c1C(=O)Nc1ccc2[nH]nc(-c3ccccc3)c2c1` [Example 57, 6,8-Dimethyl-N-(3-phenyl-1H-indazol-5-yl)-[1,2,4]triazolo[4,3-a]pyridine-7-carboxamide], for which the IC50 in assay [1] and in assay [2] (class symbols) was at most 100 nM throughout.

Consider `Cc1cn2cnnc2c(C)c1C(=O)Nc1ccc2[nH]nc(C)c2c1` [Example 58, 6,8-Dimethyl-N-(3-methyl-1H-indazol-5-yl)-[1,2,4]triazolo[4,3-a]pyridine-7-carboxamide], for which the IC50 was 100 to 1000 nM in assay [1] and 1000 to 10000 nM in assay [2] (class symbols).

Take `Cc1c(C(=O)Nc2ccc3[nH]nc(-c4ccccc4)c3c2)c(Cl)cn2cnnc12` [Example 59, 6-Chloro-8-methyl-N-(3-phenyl-1H-indazol-5-yl)-[1,2,4]triazolo[4,3-a]pyridine-7-carboxamide]: the IC50 in assay [1] and in assay [2] (class symbols) was at most 100 nM in each case.

Regarding `Cc1cc2nncn2c(C)c1C(=O)Nc1ccc2[nH]nc(C)c2c1` [Example 61, 5,7-Dimethyl-N-(3-methyl-1H-indazol-5-yl)-[1,2,4]triazolo[4,3-a]pyridine-6-carboxamide], the values for the IC50 in assay [1] and in assay [2] (class symbols) were at most 100 nM and 100 to 1000 nM, respectively.

On to `Cc1c(C(=O)Nc2ccc3[nH]nc(-c4ccccc4)c3c2)ccc2cncn12` [Example 62, 5-Methyl-N-(3-phenyl-1H-indazol-5-yl)imidazo[1,5-a]pyridine-6-carboxamide], for which the figures for the IC50 in assay [1] and in assay [2] (class symbols) were at most 100 nM and 100 to 1000 nM, respectively.

On to `O=C(Nc1ccc2[nH]nc(-c3ccccc3)c2c1)c1c(Cl)cn2cnnc2c1Cl` [Example 63, 6,8-dichloro-N-(3-phenyl-1H-indazol-5-yl)-[1,2,4]triazolo[4,3-a]pyridine-7-carboxamide], for which the IC50 in assay [1] and in assay [2] (class symbols) was at most 100 nM in each case.

For `Cc1cc2c(C)nnn2c(C)c1C(=O)Nc1ccc2[nH]nc(-c3ccccc3)c2c1` [Example 64, 3,5,7-Trimethyl-N-(3-phenyl-1H-indazol-5-yl)-[1,2,3]triazolo[1,5-a]pyridine-6-carboxamide], the IC50 is at most 100 nM in assay [1] and 100 to 1000 nM in assay [2] (class symbols).

As for `Cc1cc2c(C)nnn2c(C)c1C(=O)Nc1ccc2[nH]nc(C)c2c1` [Example 65, 3,5,7-Trimethyl-N-(3-methyl-1H-indazol-5-yl)-[1,2,3]triazolo[1,5-a]pyridine-6-carboxamide], the IC50 fell in the range of 100 to 1000 nM in assay [1] and 1000 to 10000 nM in assay [2] (class symbols).

With `Cc1cc2cncn2c(C)c1C(=O)Nc1ccc2[nH]nc(-c3ccccc3)c2c1` [Example 69, 5,7-Dimethyl-N-(3-phenyl-1H-indazol-5-yl)imidazo[1,5-a]pyridine-6-carboxamide], the IC50 in assay [1] and in assay [2] (class symbols) was at most 100 nM in each case.

As to `O=C(Nc1ccc2[nH]nc(-c3ccccc3)c2c1)c1cc2[nH]ncc2cc1C(F)(F)F` [Example 70, N-(3-Phenyl-1H-indazol-5-yl)-5-(trifluoromethyl)-1H-indazole-6-carboxamide], the values for the IC50 in assay [1] and in assay [2] (class symbols) were at most 100 nM and 100 to 1000 nM, respectively.

These data come from US20220162192A1 (ESCAPE Bio, Inc., priority 2019, published 2022).
